Experimental data from patent publication US12121606B2, “Methods and compositions for improving skin” (L'OREAL, priority 2021, dated 2024).

Test system: in vitro skin samples (EPISKIN)
Assay: In vitro skin samples after fractional laser procedure, wound healing by OCT imaging
Assay type: cell-based
Conditions: application after the fractional laser procedure
Protocol: The benefits of applying the Composition 4 to skin after a procedure that reduces the barrier function of skin was evaluated in vitro using samples generated by the EPISKIN™ group. Composition 4 comprised 0.5 wt. % of acetyl trifluoromethylphenyl valylglycine and 2 wt. % ethanol with the remainder being water, with all weight percentages based on the total weight of the formulation. A comparative composition (Comparative Composition A) containing transforming growth factor alpha (“TGF-α”) was also evaluated as a comparison to the Composition 4.
Specifically, a fractional laser procedure that is typical of laser resurfacing procedures was applied to the in vitro skin samples. The in vitro skin samples were characterized using non-invasive imaging analysis to determine the wound morphology of the in vitro skin samples. The kinetics and quantification of wound healing after the laser treatment was evaluated using optical coherence tomography (OCT). The optical measurements were performed at seven time points over the culture period. This was achieved using an OCT system produced by Thorlabs (Newton, N.J., USA) with an axial resolution of 8 μm.
Composition 4 and Comparative Composition A were applied by adding 10 uL onto in vitro skin samples after the fractional laser procedure. […]

## CC(=O)N(c1cccc(C(F)(F)F)c1)C(C(=O)NCC(=O)O)C(C)C (stereo not shown) [acetyl trifluoromethylphenyl valylglycine]
  regeneration of the epidermis: enhanced regeneration of the epidermis
